Patent publication US20180072997A1, “INHIBITORS OF HUMAN IMMUNODEFICIENCY VIRUS REPLICATION” (ViiV HEATHCARE UK (NO.5) LIMITED, priority 2015, published 2018)

How the values were obtained:
[1] = Compound cytotoxicity, XTT-based colorimetric assay; assay type: cell-based; details: human, uninfected MT2 cells, day 4, XTT
Summary of the method: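 Run under the antiviral-assay protocol but without virus. Viability was read on day 4 and CC50 values were derived from the readout.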

[2] = test system: recombinant NL4-3 virus (Renilla luciferase in nef) in MT-2 cells; test: whole plant or invertebrate; assay type: cell-based, HIV; details: Renilla, NL43, MT-2 cells infected for 4-5 days with recombinant NL4-3 Renilla luciferase virus; luciferase activity
Summary of the method: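 MT-2 cells infected for 4-5 days with NL4-3 reporter virus (Renilla luciferase replacing part of nef, produced by transfection of 293T cells) in the presence of serial compound dilutions. Antiviral activity quantified by luciferase activity read with a live-cell substrate.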

SMILES	CC50 at 4 days [1] [µM]	EC50 [2] [µM]
CN(C(=O)[C@H](Cc1ccccc1)NC(=O)c1cccc(C(=O)N[C@@H](Cc2ccccc2)C(=O)N(C)c2ccc3scnc3c2)c1)c1ccc2scnc2c1 [Example 50]	3.7	0.04
CN(C(=O)[C@H](Cc1cc(F)cc(F)c1)NC(=O)NS(=O)(=O)N[C@@H](Cc1cc(F)cc(F)c1)C(=O)N(C)c1ccc(C2CC2)cc1)c1ccc(C2CC2)cc1 [Example 198]	12.5	0.01
CN(C(=O)[C@H](Cc1cc(F)cc(F)c1)NC(=O)NS(=O)(=O)N[C@@H](Cc1cc(F)cc(F)c1)C(=O)N(C)c1ccc2sc(=O)[nH]c2c1)c1ccc2sc(=O)[nH]c2c1 [Example 175]	≥ 100	0.45
COc1ccc(N(C)C(=O)[C@H](Cc2cc(F)cc(F)c2)NC(=O)NS(=O)(=O)N[C@@H](Cc2ccccc2)C(=O)N(C)c2ccc(OC)cc2)cc1 [Example 45]	38.8	0.01
COc1ccc(N(C)C(=O)[C@H](Cc2ccccc2)Nc2ncnc(N[C@@H](Cc3ccccc3)C(=O)N(C)c3ccc(OC)cc3)n2)cc1 [Example 109]	65.4	6.87
CN(C(=O)[C@H](Cc1cc(F)cc(F)c1)NC(=O)NS(=O)(=O)N[C@@H](Cc1cc(F)cc(F)c1)C(=O)N(C)c1ccc2c(c1)OCCO2)c1ccc2c(c1)OCCO2 [Example 162]	43.9	0.07
COc1ccc(N(C)C(=O)[C@H](Cc2ccccc2)NC(=O)CC2(CC(=O)N[C@@H](Cc3ccccc3)C(=O)N(C)c3ccc(OC)cc3)CCCC2)cc1 [Example 78]	≥ 50	50
COc1ccc(N(C)C(=O)[C@H](Cc2ccccc2)NC(=O)N[C@@H](Cc2ccccc2)C(=O)N(C)c2ccc(OC)cc2)cc1 [Example 1]	23.1	2.86
COc1ccc(N(C)C(=O)[C@H](Cc2ccccc2)NC(=O)c2ccnc(C(=O)N[C@@H](Cc3ccccc3)C(=O)N(C)c3ccc(OC)cc3)c2)cc1 [Example 105]	3.1	0.68
CCN(C(=O)[C@H](Cc1cc(F)cc(F)c1)NC(=O)NS(=O)(=O)N[C@@H](Cc1cc(F)cc(F)c1)C(=O)N(CC)c1ccc(OC(F)F)cc1)c1ccc(OC(F)F)cc1 [Example 150]	24.6	0.01
COc1ccc(N(C)C(=O)[C@H](Cc2cc(F)cc(F)c2)NC(=O)CS(=O)(=O)N[C@@H](Cc2cc(F)cc(F)c2)C(=O)N(C)c2ccc(OC)cc2)cc1 [Example 64]	11.3	0.38
CN(C(=O)[C@H](Cc1ccccc1)NC(=O)NS(=O)(=O)N[C@@H](Cc1ccccc1)C(=O)N(C)c1ccccc1)c1ccccc1 [Example 85]	≥ 100	0.97
COc1ccc(N(C)C(=O)[C@H](Cc2ccccc2)NC(=O)Cn2c(=O)c3ccccc3n(CC(=O)N[C@@H](Cc3ccccc3)C(=O)N(C)c3ccc(OC)cc3)c2=O)cc1 [Example 100]	≥ 100	0.07
CN(C(=O)[C@H](Cc1cc(F)cc(F)c1)NC(=O)NS(=O)(=O)N[C@@H](Cc1cc(F)cc(F)c1)C(=O)N(C)c1ccc(F)c(F)c1)c1ccc(F)c(F)c1 [Example 215]	34.5	0.31
CN(C(=O)[C@H](Cc1cc(F)cc(F)c1)NC(=O)c1cccc(S(=O)(=O)N[C@@H](Cc2cc(F)cc(F)c2)C(=O)N(C)c2ccc3scnc3c2)c1)c1ccc2scnc2c1 [Example 107]	≥ 100	0.3
COc1ccc(N(C)C(=O)[C@H](Cc2ccccc2)NC(=O)NS(=O)(=O)N[C@@H](Cc2ccccc2)C(=O)N(C)c2ccc(OC)cc2)cc1 [Example 2]	77.9	0.03
COc1ccc(N(C)C(=O)[C@H](Cc2ccccc2)NC(=O)c2cccc(C(=O)N[C@@H](Cc3ccccc3)C(=O)N(C)c3ccc(OC)cc3)c2)cc1 [Example 24]	4.2	0.09
COc1ccc(N(C)C(=O)[C@H](Cc2ccccc2)NC(=O)Cc2ccc(CC(=O)N[C@@H](Cc3ccccc3)C(=O)N(C)c3ccc(OC)cc3)cc2)cc1 [Example 47]	11.1	2.76
CN(C(=O)[C@H](Cc1cc(F)cc(F)c1)NC(=O)c1ccc(F)c(C(=O)N[C@@H](Cc2cc(F)cc(F)c2)C(=O)N(C)c2ccc(C3CC3)cc2)c1)c1ccc(C2CC2)cc1 [Example 230]	≥ 100	0.02
CCN(C(=O)[C@H](Cc1cc(F)cc(F)c1)NC(=O)CN1c2ccccc2N(CC(=O)N[C@@H](Cc2cc(F)cc(F)c2)C(=O)N(CC)c2ccc3oc(=O)n(CC)c3c2)S1(=O)=O)c1ccc2oc(=O)n(CC)c2c1 [Example 155]	≥ 33.3	2.13
CCN(C(=O)[C@H](Cc1cc(F)cc(F)c1)NC(=O)CN1c2ccccc2N(CC(=O)N[C@@H](Cc2cc(F)cc(F)c2)C(=O)N(CC)c2ccc3oc(=O)n(Cc4ccccc4)c3c2)S1(=O)=O)c1ccc2oc(=O)n(Cc3ccccc3)c2c1 [Example 153]	3.1	1.54

SMILES	CC50 at 4 days [1] [µM]	EC50 [2] [µM]
CN(C(=O)[C@H](Cc1ccccc1)NC(=O)c1ccnc(N[C@@H](Cc2ccccc2)C(=O)N(C)c2ccc3scnc3c2)n1)c1ccc2scnc2c1 [Example 154]	≥ 100	1.86
C=CCN(C(=O)[C@H](Cc1cc(F)cc(F)c1)NC(=O)c1ccncc1C(=O)N[C@@H](Cc1cc(F)cc(F)c1)C(=O)N(CC=C)c1ccc(OC)cc1)c1ccc(OC)cc1 [Example 211]	14	3.92
COc1ccc(N(C)C(=O)[C@H](Cc2ccccc2)NC(=O)Cc2cn(CC(=O)N[C@@H](Cc3ccccc3)C(=O)N(C)c3ccc(OC)cc3)c3ccccc23)cc1 [Example 61]	32.6	0.61
COc1ccc(N(C)C(=O)[C@H](Cc2cc(F)cc(F)c2)NC(=O)CN2c3ccccc3N(CC(=O)N[C@@H](Cc3cc(F)cc(F)c3)C(=O)N(C)c3ccc(OC)c(F)c3)S2(=O)=O)cc1F [Example 231]	≥ 100	0.04
CN(C(=O)[C@H](Cc1cc(F)cc(F)c1)NC(=O)NS(=O)(=O)N[C@@H](Cc1cc(F)cc(F)c1)C(=O)N(C)c1ccc2c(cnn2C)c1)c1ccc2c(cnn2C)c1 [Example 185]	96	0.08
COc1ccc(N(C)C(=O)[C@H](Cc2ccccc2)NC(=O)CS(=O)(=O)N[C@@H](Cc2ccccc2)C(=O)N(C)c2ccc(OC)cc2)cc1 [Example 63]	30.2	1.09
C=CCN(C(=O)[C@H](Cc1cc(F)cc(F)c1)NC(=O)CCC(=O)N[C@@H](Cc1cc(F)cc(F)c1)C(=O)N(CC=C)c1ccc(OC)cc1)c1ccc(OC)cc1 [Example 170]	28.4	7.66
Cc1nc2c(F)c(N(C)C(=O)[C@H](Cc3cc(F)cc(F)c3)NC(=O)NS(=O)(=O)N[C@@H](Cc3cc(F)cc(F)c3)C(=O)N(C)c3ccc4sc(C)nc4c3F)ccc2s1 [Example 239]	≥ 100	0.86
COc1ccc(N(CCF)C(=O)[C@H](Cc2cc(F)cc(F)c2)NC(=O)CN2c3ccccc3N(CC(=O)N[C@@H](Cc3cc(F)cc(F)c3)C(=O)N(CCF)c3ccc(OC)cc3)S2(=O)=O)cc1 [Example 122]	≥ 100	0.09
CC#CCN(C(=O)[C@H](Cc1cc(F)cc(F)c1)NC(=O)c1cc(F)c(F)cc1C(=O)N[C@@H](Cc1cc(F)cc(F)c1)C(=O)N(CC#CC)c1ccc(OC)cc1)c1ccc(OC)cc1 [Example 234]	95.3	6.83
COc1ccc(N(C)C(=O)[C@H](Cc2ccccc2)NC(=O)NS(=O)(=O)N[C@@H](Cc2ccccc2)C(=O)N(C)c2cc(C)c(OC)cc2C)cc1 [Example 15]	35.3	4.22
COc1ccc(N(C)C(=O)[C@H](Cc2ccccc2)NC(=O)c2cncc(C(=O)N[C@@H](Cc3ccccc3)C(=O)N(C)c3ccc(OC)cc3)n2)cc1 [Example 111]	≥ 100	0.96
CN(C(=O)[C@H](Cc1cc(F)cc(F)c1)NC(=O)NS(=O)(=O)N[C@@H](Cc1cc(F)cc(F)c1)C(=O)N(C)c1ccc(C(F)(F)F)nc1)c1ccc(C(F)(F)F)nc1 [Example 199]	46.7	0.47
C=CCN(C(=O)[C@H](Cc1cc(F)cc(F)c1)NS(=O)(=O)CCCS(=O)(=O)N[C@@H](Cc1cc(F)cc(F)c1)C(=O)N(CC=C)c1ccc(OC)cc1)c1ccc(OC)cc1 [Example 164]	≥ 100	2.64
CN(C(=O)[C@H](Cc1cc(F)cc(F)c1)NC(=O)NS(=O)(=O)N[C@@H](Cc1cc(F)cc(F)c1)C(=O)N(C)c1ccc(=O)n(C)c1)c1ccc(=O)n(C)c1 [Example 174]	≥ 100	100
CN(C(=O)[C@H](Cc1cc(F)cc(F)c1)NC(=O)c1ccc(F)c(C(=O)N[C@@H](Cc2cc(F)cc(F)c2)C(=O)N(C)c2ccc3snnc3c2)c1)c1ccc2snnc2c1 [Example 179]	≥ 100	0.34
COc1ccc(N(C)C(=O)[C@H](Cc2ccccc2)NC(=O)OCCOC(=O)N[C@@H](Cc2ccccc2)C(=O)N(C)c2ccc(OC)cc2)cc1 [Example 56]	10.5	2.6
COc1ccc(N(C)C(=O)[C@H](Cc2ccccc2)NC(=O)NS(=O)(=O)N[C@@H](Cc2ccc(F)cc2)C(=O)N(C)C)cc1 [Example 9]	≥ 100	2.67
COc1ccc(N(C)C(=O)[C@H](Cc2ccccc2)NC(=O)CCN2CCN(CCC(=O)N[C@@H](Cc3ccccc3)C(=O)N(C)c3ccc(OC)cc3)CC2)cc1 [Example 40]	36	0.31
Cc1cc(C(=O)N[C@@H](Cc2cc(F)cc(F)c2)C(=O)N(C)c2ccc3scnc3c2)cc(C(=O)N[C@@H](Cc2cc(F)cc(F)c2)C(=O)N(C)c2ccc3scnc3c2)c1 [Example 127]	3.8	0.01
CN(C(=O)[C@H](Cc1ccccc1)Nc1ncc(-c2cnc(N[C@@H](Cc3ccccc3)C(=O)N(C)c3ccc4scnc4c3)nc2)cn1)c1ccc2scnc2c1 [Example 136]	≥ 100	0.34
